# US8295924B2, “Transdermal systems for the delivery of ionic agents directly to open wounds and surgically repaired incisions” (Teikoku Pharma USA, Inc., priority 2006, dated 2012)
# Settings: hairless rats, pad saturated with 4% lidocaine, 2 cm^2 delivery pad, 0.3 mA for 24 hours, active iontophoretic probe; for the entire 24-hour period
# Description: An incision was made in hairless rats, which was then sutured closed.
structure (smiles),measurement,value
CCN(CC)CC(=O)Nc1c(C)cccc1C [lidocaine],Concentration of lidocaine generated in the incision,sufficient to cause anesthesia
